Reference: US11697646B2, “Triazole N-linked carbamoyl cyclohexyl acids as LPA antagonists” (BRISTOL-MYERS SQUIBB COMPANY, priority 2017, dated 2023)
pIC50: −log10 of the molar value.

The compounds below were run against T1, human LPA1 (Homo sapiens, UniProt Q92633) (assay: LPA1 functional antagonist assay (calcium flux)). Settings: CHO cells overexpressing human LPA1; calcium flux induced by 10 nM LPA; read-out: hLPA1 IC50.
T1 construct: expressed in transfected cells; host or cells: Chinese hamster ovary (CHO) cells
T1 sequence (Q92633 whole entry): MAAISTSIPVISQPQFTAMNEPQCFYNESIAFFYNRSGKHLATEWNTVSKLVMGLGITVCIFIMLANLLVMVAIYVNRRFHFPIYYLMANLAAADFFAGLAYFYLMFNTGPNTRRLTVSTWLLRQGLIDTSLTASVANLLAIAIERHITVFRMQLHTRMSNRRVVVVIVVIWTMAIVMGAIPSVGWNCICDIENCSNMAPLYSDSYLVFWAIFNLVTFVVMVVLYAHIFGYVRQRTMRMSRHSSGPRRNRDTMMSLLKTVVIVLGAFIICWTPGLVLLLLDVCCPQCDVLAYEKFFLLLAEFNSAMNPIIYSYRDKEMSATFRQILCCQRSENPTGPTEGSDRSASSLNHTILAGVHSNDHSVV
Format: cell-based
Method: The effectiveness of compounds of the present invention as LPA1 inhibitors can be determined in an LPA1 functional antagonist assay as follows:
The cells were then equilibrated to room temperature for 30 minutes before the assay. […] IC50 values were determined by fitting data to a 4-parameter logistic equation (GraphPad Prism, San Diego Calif.).

Point of comparison: `C[C@@H](OC(=O)Nc1c(-c2ccc(O[C@H]3CCC[C@H](C(=O)O)C3)cn2)nnn1C)c1ccccc1` [Example 91, (1S,3S)-3-((6-(1-methyl-5-((((R)-1-phenylethoxy)carbonyl)amino)-1H-1,2,3-triazol-4-yl)pyridin-3-yl)oxy)cyclohexane-1-carboxylic acid], pIC50 7.46. Against it:
- Cc1nc(-c2nnn(C)c2NC(=O)OC(C)C)ccc1O[C@H]1CCC[C@H](C(=O)O)C1 [Example 70, (1S,3S)-3-((6-(5-((isopropoxycarbonyl)amino)-1-methyl-1H-1,2,3-triazol-4-yl)-2-methylpyridin-3-yl)oxy)cyclohexane-1-carboxylic acid] — 0.57 log units lower, 6.89
- CCCCCOC(=O)Nc1c(-c2ccc(O[C@H]3CCC[C@H](C(=O)O)C3)c(C)n2)nnn1C [Example 71, (1S,3S)-3-((2-methyl-6-(1-methyl-5-(((pentyloxy)carbonyl)amino)-1H-1,2,3-triazol-4-yl)pyridin-3-yl)oxy)cyclohexane-1-carboxylic acid] — 0.76 log units higher, 8.22
- Cc1nc(-c2nnn(C)c2NC(=O)O[C@H](C)c2ccccc2)ccc1O[C@H]1CCC[C@H](C(=O)O)C1 [Example 72, (1S,3S)-3-((2-methyl-6-(1-methyl-5-((((R)-1-phenylethoxy)carbonyl)amino)-1H-1,2,3-triazol-4-yl)pyridin-3-yl)oxy)cyclohexane-1-carboxylic acid] — within 0.2 log units, 7.59
- Cc1nc(-c2nnn(C)c2NC(=O)OCCC2CC2)ccc1O[C@H]1CCC[C@H](C(=O)O)C1 [Example 73, (1S,3S)-3-((6-(5-(((2-cyclopropyl-ethoxy)carbonyl)amino)-1-methyl-1H-1,2,3-triazol-4-yl)-2-methyl-pyridin-3-yl)oxy)cyclohexane-1-carboxylic acid] — 0.50 log units higher, 7.96
- Cc1nc(-c2nnn(C)c2NC(=O)OCC2CC2)ccc1O[C@H]1CCC[C@H](C(=O)O)C1 [Example 74, (1S,3S)-3-((6-(5-(((cyclopropyl-methoxy)carbonyl)amino)-1-methyl-1H-1,2,3-triazol-4-yl)-2-methyl-pyridin-3-yl)oxy)cyclohexane-1-carboxylic acid] — 0.39 log units higher, 7.85
- Cc1nc(-c2nnn(C)c2NC(=O)OCC2CCC2)ccc1O[C@H]1CCC[C@H](C(=O)O)C1 [Example 75] — 0.20 log units higher, 7.66
- Cc1nc(-c2nnn(C)c2NC(=O)OCC2CCCCC2)ccc1O[C@H]1CCC[C@H](C(=O)O)C1 [Example 76, (1S,3S)-3-((6-(5-(((cyclohexyl-methoxy)carbonyl)amino)-1-methyl-1H-1,2,3-triazol-4-yl)-2-methyl-pyridin-3-yl)oxy)cyclohexane-1-carboxylic acid] — 0.26 log units higher, 7.72
- Cc1nc(-c2nnn(C)c2NC(=O)OCCC(C)C)ccc1O[C@H]1CCC[C@H](C(=O)O)C1 [Example 77, (1S,3S)-3-((6-(5-(((isopentyloxy)carbonyl)amino)-1-methyl-1H-1,2,3-triazol-4-yl)-2-methylpyridin-3-yl)oxy)cyclohexane-1-carboxylic acid] — 0.24 log units higher, 7.70
- Cc1nc(-c2nnn(C)c2NC(=O)OCC(C)C)ccc1O[C@H]1CCC[C@H](C(=O)O)C1 [Example 78, (1S,3S)-3-((6-(5-((isobutoxy-carbonyl)amino)-1-methyl-1H-1,2,3-triazol-4-yl)-2-methylpyridin-3-yl)oxy)cyclohexane-1-carboxylic acid] — within 0.2 log units, 7.54
- Cc1nc(-c2nnn(C)c2NC(=O)OCC2CCCC2)ccc1O[C@H]1CCC[C@H](C(=O)O)C1 [Example 79, (1S,3S)-3-((6-(5-(((cyclopentylmethoxy)carbonyl)amino)-1-methyl-1H-1,2,3-triazol-4-yl)-2-methylpyridin-3-yl)oxy)cyclohexane-1-carboxylic acid] — within 0.2 log units, 7.49
- Cc1nc(-c2nnn(C)c2NC(=O)OCc2ccccc2)ccc1O[C@H]1CCC[C@H](C(=O)O)C1 [Example 80, (1S,3S)-3-((6-(5-(((benzyloxy)carbonyl)amino)-1-methyl-1H-1,2,3-triazol-4-yl)-2-methylpyridin-3-yl)oxy)cyclohexane-1-carboxylic acid] — within 0.2 log units, 7.43
- Cn1nnc(-c2ccc(O[C@H]3CCC[C@H](C(=O)O)C3)cn2)c1NC(=O)OCC1CCC1 [Example 81] — 0.21 log units lower, 7.25
- C[C@@H](OC(=O)Nc1c(-c2ccc(O[C@H]3CCC[C@H](C(=O)O)C3)cn2)nnn1C)C1CC1 [Example 82, (1S,3S)-3-((6-(5-((((R)-1-cyclopropyl-ethoxy)carbonyl)amino)-1-methyl-1H-1,2,3-triazol-4-yl)pyridin-3-yl)oxy)cyclohexane-1-carboxylic acid] — 0.36 log units lower, 7.10
- Cn1nnc(-c2ccc(O[C@H]3CCC[C@H](C(=O)O)C3)cn2)c1NC(=O)OCC1CC1 [Example 83, (1S,3S)-3-((6-(5-(((cyclopropyl-methoxy)carbonyl)amino)-1-methyl-1H-1,2,3-triazol-4-yl)pyridin-3-yl)oxy)cyclohexane-1-carboxylic acid] — 0.71 log units lower, 6.75
- Cn1nnc(-c2ccc(O[C@H]3CCC[C@H](C(=O)O)C3)cn2)c1NC(=O)OCCC1CC1 [Example 84, (1S,3S)-3-((6-(5-(((2-cyclopropyl-ethoxy)carbonyl)amino)-1-methyl-1H-1,2,3-triazol-4-yl)pyridin-3-yl)oxy)cyclohexane-1-carboxylic acid] — within 0.2 log units, 7.42
- CC(C)CCOC(=O)Nc1c(-c2ccc(O[C@H]3CCC[C@H](C(=O)O)C3)cn2)nnn1C [Example 85, (1S,3S)-3-((6-(5-(((isopentyloxy)carbonyl)amino)-1-methyl-1H-1,2,3-triazol-4-yl)pyridin-3-yl)oxy)cyclohexane-1-carboxylic acid] — 0.52 log units lower, 6.94
- Cn1nnc(-c2ccc(O[C@H]3CCC[C@H](C(=O)O)C3)cn2)c1NC(=O)OCC1CCCCC1 [Example 86, (1S,3S)-3-((6-(5-(((cyclohexyl-methoxy)carbonyl)amino)-1-methyl-1H-1,2,3-triazol-4-yl)pyridin-3-yl)oxy)cyclohexane-1-carboxylic acid] — within 0.2 log units, 7.44
- CC(C)COC(=O)Nc1c(-c2ccc(O[C@H]3CCC[C@H](C(=O)O)C3)cn2)nnn1C [Example 87, (1S,3S)-3-((6-(5-((isobutoxy-carbonyl)amino)-1-methyl-1H-1,2,3-triazol-4-yl)pyridin-3-yl)oxy)cyclohexane-1-carboxylic acid] — 0.80 log units lower, 6.66
- CCCCCOC(=O)Nc1c(-c2ccc(O[C@H]3CCC[C@H](C(=O)O)C3)cn2)nnn1C [Example 88] — within 0.2 log units, 7.47
- CCCCOC(=O)Nc1c(-c2ccc(O[C@H]3CCC[C@H](C(=O)O)C3)cn2)nnn1C [Example 89, (1S,3S)-3-((6-(5-((butoxycarbonyl)amino)-1-methyl-1H-1,2,3-triazol-4-yl)pyridin-3-yl)oxy)cyclohexane-1-carboxylic acid] — 0.28 log units lower, 7.18
- Cn1nnc(-c2ccc(O[C@H]3CCC[C@H](C(=O)O)C3)cn2)c1NC(=O)OC1CCCC1 [Example 90, (1S,3S)-3-((6-(5-(((cyclopentyloxy)carbonyl)amino)-1-methyl-1H-1,2,3-triazol-4-yl)pyridin-3-yl)oxy)cyclohexane-1-carboxylic acid] — 0.63 log units lower, 6.83
- Cn1nnc(-c2ccc(O[C@H]3CCC[C@H](C(=O)O)C3)c(C(F)(F)F)n2)c1CNC(=O)OCc1ccccc1 [Example 92, (1S,3S)-3-((6-(5-((((benzyloxy)carbonyl)amino)methyl)-1-methyl-1H-1,2,3-triazol-4-yl)-2-(trifluoro-methyl)pyridin-3-yl)oxy)cyclohexane-1-carboxylic acid] — 0.39 log units higher, 7.85
